“And” between values parts separate entries of the source, which are not always exact repeats. Equal entries are not always repeated. Where two headings read alike, the source gives them in different places.
What was measured:
SW48 xenografts = assay: SW48 xenograft efficacy, compound 3 p.o. twice daily; assay type: in vivo, mouse; settings: for Tumour volume (TVol): single mouse, listed as WRNi #4
Experimental: All animal studies were conducted in accordance with ethics and procedures covered by permit BS-2275 and BS-1975 issued by the Kantonales Veterinäramt Basel-Stadt and in strict adherence to guidelines of the Eidgenössisches Tierschutzgesetz and the Eidgenössische Tierschutzverordnung, Switzerland. All animal studies were approved by the internal ethics committee. All animals had access to food and water ad libitum and were identified with transponders. They were housed in a specific-pathogen-free facility in IVC racks under a 12 h–12 h light–dark cycle. To establish cell-line-derived xenograft models, 6–7-week-old female athymic nude (Crl:NU(NCr)-Foxn1^nu) or SCID-BEIGE (CB17.Cg-PrkdcscidLystbg-J/Crl) mice from Charles River were engrafted subcutaneously with 5 million tumour cells in HBSS (H6648, Sigma-Aldrich). For SNU-407, Lovo, IM95, RL95.2, Ishikawa and IGROV-1, the cells were concentrated in 50% Matrigel (354234, Corning). Patient-derived xenografts were induced and expanded by transplantation as previously described. […] For the efficacy experiment, mice were randomized into groups (n = 5–6) for a mean tumour size of 100–150 mm^3. […] Blood samples were collected on day 7 and 91. […] Tumour responses are reported with the measures of tumour volumes from the treatment start. […] Animals were randomized (n = 3) and tumour samples were collected at 0, 1, 4, 8 and 24 h on the first day and then collected 4 h after the last treatment on day 3, 8, 10, 14 (including a 24 h timepoint), 17 and 21. Tumours were excised, weighed, either frozen in liquid nitrogen and cryogenic dry pulverized with the CryoPrep system (model CP-02, Covaris) or processed to FFPE after fixation. […] On day 12, blood samples were collected for PK analysis. On the last day (3 h after the last treatment), tumours were excised, weighed, frozen in liquid nitrogen and cryogenic dry pulverized for PD analysis.

RKO = assay: 4 day proliferation assay (CellTiter-Glo); settings: Homo sapiens, 96 h, read-out: 4 day assay GI50
LS411N = assay: 4 day proliferation assay (CellTiter-Glo)
HEC265 = assay: CFA 10-14 day clonogenic assay; assay type: cell-based; settings: Homo sapiens
SW48 = assay: cells; settings: Homo sapiens, SW48, read-out: CFA 10-14 day assay GI50
LS180 = assay: CFA 10-14 day clonogenic assay; assay type: cell-based; settings: Homo sapiens
RL952 = assay: CFA 10-14 day clonogenic assay; assay type: cell-based; settings: Homo sapiens, RL95-2
SNU520 [1] = assay: 4 day proliferation assay (CellTiter-Glo); settings: Homo sapiens, 96 h, read-out: 4 day assay GI50
CYP3A4 = CYP3A4 (Homo sapiens, UniProt P08684); assay: CYP3A4 TDI; assay type: in vitro ADME
Sequence of CYP3A4 (P08684 whole entry, species assumed): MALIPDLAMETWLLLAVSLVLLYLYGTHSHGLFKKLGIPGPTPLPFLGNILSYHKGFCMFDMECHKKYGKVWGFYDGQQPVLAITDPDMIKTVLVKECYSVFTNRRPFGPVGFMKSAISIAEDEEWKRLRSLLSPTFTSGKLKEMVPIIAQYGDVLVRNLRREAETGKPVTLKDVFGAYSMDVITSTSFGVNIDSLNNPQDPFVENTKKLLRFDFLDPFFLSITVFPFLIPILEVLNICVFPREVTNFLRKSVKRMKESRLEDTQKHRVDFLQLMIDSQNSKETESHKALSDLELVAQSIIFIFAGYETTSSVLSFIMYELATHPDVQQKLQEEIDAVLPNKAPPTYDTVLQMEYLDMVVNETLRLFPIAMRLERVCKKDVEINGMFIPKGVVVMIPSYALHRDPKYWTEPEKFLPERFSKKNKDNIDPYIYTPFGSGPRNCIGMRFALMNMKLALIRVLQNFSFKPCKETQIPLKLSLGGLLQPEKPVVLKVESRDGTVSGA

SNU520 [2] = assay: CFA 10-14 day clonogenic assay; assay type: cell-based; settings: Homo sapiens
SNGM = assay: CFA 10-14 day clonogenic assay; assay type: cell-based; settings: Homo sapiens
HEC6 = assay: CFA 10-14 day clonogenic assay; assay type: cell-based; settings: Homo sapiens, HEC-6
[3] = tested on: WRN protein in MSI and MSS cells; assay: WRN degradation (immunoblot, ELISA); assay type: cell-based, human
Experimental: A list of all of the antibodies is provided in Supplementary Table 2. […] The plates were washed in PBS and 200 µl per well of blocking reagent added (PBS, 0.05% Tween-20, 5% skimmed milk), and the plates were incubated for a minimum of 2 h at room temperature. […] The plates were then washed and 50 µl of secondary antibody per well diluted in blocking buffer was added and the plates were incubated overnight at 4 °C. The next day, 50 µl of tertiary antibody was added per well buffer and the plates were incubated for 2 h at room temperature. […] The plates were shaken and luminescence was detected immediately on the Synergy HT microplate reader.

HEC151 [4] = assay: CFA 10-14 day clonogenic assay; assay type: cell-based; settings: Homo sapiens
[5] = tested on: microsatellite-stable (MSS) cells; assay: Clonogenic assay, 10-to-14-day; settings: 10-to-14-day clonogenic assay
TOV21G [6] = assay: CFA 10-14 day clonogenic assay; assay type: cell-based; settings: Homo sapiens
LOVO = assay: CFA 10-14 day clonogenic assay; assay type: cell-based; settings: Homo sapiens
KM12 = assay: CFA 10-14 day clonogenic assay; assay type: cell-based; settings: Homo sapiens
IGROV1 = assay: CFA 10-14 day clonogenic assay; assay type: cell-based; settings: Homo sapiens, IGROV-1
TOV21G [7] = assay: 4 day proliferation assay (CellTiter-Glo); settings: Homo sapiens, 96 h, read-out: 4 day assay GI50
JHUEM2 = assay: 4 day proliferation assay (CellTiter-Glo); settings: Homo sapiens, 96 h, read-out: 4 day assay GI50
HEC151 [8] = assay: 4 day proliferation assay (CellTiter-Glo); settings: Homo sapiens, 96 h, read-out: 4 day assay GI50

CCc1c(N2CCN(C(=O)c3ncccc3O)CC2)c(=O)n2nc(C3=CCOCC3)nc2n1CC(=O)Nc1ccc(C(F)(F)F)cc1C [compound 3]
Mean TVol (SW48 xenografts; 15mg/kg BID, day 0): 186.30 mm3 | Tumour volume (TVol) (SW48 xenografts; 15mg/kg BID, day 0): 125.21 mm3 and 176.57 mm3 and 158.22 mm3 and 139.01 mm3 and 236.47 mm3 and 285.36 mm3 and 183.25 mm3 | Mean TVol (SW48 xenografts; 15mg/kg BID, day 4): 363.88 mm3 | Tumour volume (TVol) (SW48 xenografts; 15mg/kg BID, day 4): 335.90 mm3 and 349.83 mm3 and 278.60 mm3 and 343.34 mm3 and 317.21 mm3 and 499.75 mm3 and 422.53 mm3 | Mean TVol (SW48 xenografts; 15mg/kg BID, day 6): 401.70 mm3 | Tumour volume (TVol) (SW48 xenografts; 15mg/kg BID, day 6): 446.30 mm3 and 500.68 mm3 | Mean TVol (SW48 xenografts; 15mg/kg BID, day 8): 483.57 mm3 | Mean TVol (SW48 xenografts; 15mg/kg BID, day 11): 653.78 mm3 | Tumour volume (TVol) (SW48 xenografts; 15mg/kg BID, day 11): 649.03 mm3 and 796.01 mm3 and 408.88 mm3 and 697.95 mm3 and 448.35 mm3 and 901.30 mm3 and 674.92 mm3 | Mean TVol (SW48 xenografts; 15mg/kg BID, day 13): 737.71 mm3 | Tumour volume (TVol) (SW48 xenografts; 15mg/kg BID, day 13): 506.43 mm3 and 897.69 mm3 and 575.84 mm3 and 720.03 mm3 and 530.25 mm3 and 1055.13 mm3 and 878.60 mm3 | Mean TVol (SW48 xenografts; 50mg/kg BID, day 0): 186.25 mm3 | Tumour volume (TVol) (SW48 xenografts; 50mg/kg BID, day 0): 104.69 mm3 and 206.32 mm3 and 158.46 mm3 and 258.06 mm3 and 184.54 mm3 and 140.44 mm3 and 251.24 mm3 | Mean TVol (SW48 xenografts; 50mg/kg BID, day 4): 286.97 mm3 | Tumour volume (TVol) (SW48 xenografts; 50mg/kg BID, day 4): 175.53 mm3 and 349.15 mm3 and 205.03 mm3 and 394.61 mm3 and 285.83 mm3 and 247.36 mm3 and 351.29 mm3 | Mean TVol (SW48 xenografts; 50mg/kg BID, day 6): 317.35 mm3 | Tumour volume (TVol) (SW48 xenografts; 50mg/kg BID, day 6): 143.51 mm3 and 438.53 mm3 and 201.74 mm3 and 334.71 mm3 and 301.07 mm3 and 265.24 mm3 and 536.64 mm3 | Mean TVol (SW48 xenografts; 50mg/kg BID, day 8): 332.70 mm3 | Mean TVol (SW48 xenografts; 50mg/kg BID, day 11): 410.64 mm3 | Tumour volume (TVol) (SW48 xenografts; 50mg/kg BID, day 11): 304.71 mm3 and 545.58 mm3 and 199.89 mm3 and 340.76 mm3 and 293.59 mm3 and 390.68 mm3 and 799.25 mm3 | Mean TVol (SW48 xenografts; 50mg/kg BID, day 13): 453.33 mm3 | Tumour volume (TVol) (SW48 xenografts; 50mg/kg BID, day 13): 281.31 mm3 and 743.48 mm3 and 206.77 mm3 and 483.85 mm3 and 288.10 mm3 and 511.66 mm3 and 658.13 mm3 | tumour response (SW48 xenografts; 150 mg per kg orally twice daily): stable disease | Mean TVol (SW48 xenografts; 150mg/kg BID, day 0): 186.70 mm3 | Tumour volume (TVol) (SW48 xenografts; 150mg/kg BID, day 0 post 1st dose): 121.54 mm3 and 271.88 mm3 and 115.87 mm3 and 175.12 mm3 and 222.88 mm3 and 177.21 mm3 and 222.42 mm3 | Mean TVol (SW48 xenografts; 150mg/kg BID, day 4): 226.51 mm3 | Tumour volume (TVol) (SW48 xenografts; 150mg/kg BID, day 4): 200.34 mm3 and 361.96 mm3 and 112.57 mm3 and 220.17 mm3 and 244.46 mm3 and 160.01 mm3 and 286.05 mm3 | Mean TVol (SW48 xenografts; 150mg/kg BID, day 6): 224.94 mm3 | Tumour volume (TVol) (SW48 xenografts; 150mg/kg BID, day 6): 174.76 mm3 and 361.01 mm3 and 147.06 mm3 and 189.44 mm3 and 231.82 mm3 and 170.17 mm3 and 300.33 mm3 | Mean TVol (SW48 xenografts; 150mg/kg BID, day 8): 196.74 mm3 | Mean TVol (SW48 xenografts; 150mg/kg BID, day 11): 203.13 mm3 | Tumour volume (TVol) (SW48 xenografts; 150mg/kg BID, day 11): 147.98 mm3 and 318.20 mm3 and 124.24 mm3 and 228.02 mm3 and 223.70 mm3 and 145.76 mm3 and 234.03 mm3 | Mean TVol (SW48 xenografts; 150mg/kg BID, day 13): 172.38 mm3 | Tumour volume (TVol) (SW48 xenografts; 150mg/kg BID, day 13): 158.96 mm3 and 252.06 mm3 and 121.12 mm3 and 163.89 mm3 and 181.33 mm3 and 166.20 mm3 and 163.13 mm3 | Reg (SW48 xenografts; 150 mg/kg p.o. twice daily): 4 % Reg

CCc1c(N2CCN(C(=O)c3ncnc(C)c3O)CC2)c(=O)n2nc(C3=CCOCC3)nc2n1CC(=O)Nc1ccc(C(F)(F)F)cc1Cl [HRO761]
GI50 (RKO): 2910 nM | GI50 (LS411N; Homo sapiens, LS-411N, 96 h, read-out: 4 day assay GI50, LS411N): 147 nM | GI50 (LS411N; read-out: 4 day assay GI50, LS411N): 257 nM | GI50 (HEC265): 61 nM | GI50 (SW48): 31 nM | GI50 (LS180): 131 nM | GI50 (RL952): 16 nM | GI50 (SNU520 [1]): ≥ 10000 nM | CYP3A4 TDI (CYP3A4): No TDI | GI50 (SNU520 [2]): 1740 nM | GI50 (SNGM): 7290 nM | GI50 (HEC6): 16 nM | WRN degradation, dependence on MSI/MSS status [3]: only in MSI cells | GI50 (HEC151 [4]): 303 nM | effect on viability [5]: no effect | GI50 (TOV21G [6]): 1310 nM | GI50 (LOVO): 73 nM | GI50 (KM12): 100 nM | GI50 (IGROV1): 473 nM | GI50 (TOV21G [7]): ≥ 10000 nM | GI50 (JHUEM2): ≥ 10000 nM | GI50 (HEC151 [8]): ≥ 10000 nM

From paper PMC11078746 (Nature, 2024)
